What was measured:
COLO 205 [1] = assay: Growth inhibition of human COLO205 cells at 20 ug/ml by MTT assay; type: functional; conditions: read-out: GI
MCF7 [2] = assay: Growth inhibition of human MCF7 cells at 30 ug/ml by MTT assay; type: functional; conditions: read-out: GI
[3] = Growth inhibition of human MCF10A cells at 10 ug/ml by MTT assay; type: cell-based, MCF-10A; conditions: MCF10A cells, read-out: GI
COLO 205 [4] = assay: Growth inhibition of human COLO205 cells at 5 ug/ml by MTT assay; type: functional; conditions: read-out: GI
HepG2 [5] = assay: Growth inhibition of human HepG2 cells at 10 ug/ml by MTT assay; type: functional; conditions: read-out: GI
COLO 205 [6] = assay: Growth inhibition of human COLO205 cells at 10 ug/ml by MTT assay; type: functional; conditions: read-out: GI
MCF7 [7] = assay: Growth inhibition of human MCF7 cells at 10 ug/ml by MTT assay; type: functional; conditions: read-out: GI
HepG2 [8] = assay: Growth inhibition of human HepG2 cells at 5 ug/ml by MTT assay; type: functional; conditions: read-out: GI
HepG2 [9] = assay: Growth inhibition of human HepG2 cells at 30 ug/ml by MTT assay; type: functional; conditions: read-out: GI
HepG2 [10] = assay: Growth inhibition of human HepG2 cells at 20 ug/ml by MTT assay; type: functional; conditions: read-out: GI
[11] = Growth inhibition of human MCF10A cells at 20 ug/ml by MTT assay; type: cell-based, MCF-10A; conditions: MCF10A cells, read-out: GI
HepG2 [12] = assay: Growth inhibition of human HepG2 cells by MTT assay; type: functional, cell-based
MCF7 [13] = assay: Growth inhibition of human MCF7 cells at 5 ug/ml by MTT assay; type: functional; conditions: read-out: GI
COLO 205 [14] = assay: Growth inhibition of human COLO205 cells by MTT assay; type: functional, cell-based
MCF7 [15] = assay: Growth inhibition of human MCF7 cells by MTT assay; type: functional, cell-based
MCF7 [16] = assay: Growth inhibition of human MCF7 cells at 20 ug/ml by MTT assay; type: functional; conditions: read-out: GI
[17] = Growth inhibition of human MCF10A cells at 30 ug/ml by MTT assay; type: cell-based, MCF-10A; conditions: MCF10A cells, read-out: GI
COLO 205 [18] = assay: Growth inhibition of human COLO205 cells at 30 ug/ml by MTT assay; type: functional; conditions: read-out: GI
[19] = Growth inhibition of human MCF10A cells at 5 ug/ml by MTT assay; type: cell-based, MCF-10A; conditions: MCF10A cells, read-out: GI

Question: What does the source list for `O=c1cc(-c2ccccc2)oc2cc(O)cc(O)c12` [CHRYSIN]?
Answer: inhibition of growth at 20 µg/mL (COLO 205 [1]): 56.5%; inhibition of growth at 30 µg/mL (MCF7 [2]): 97%; inhibition at 10 ug/ml [3]: 14.5%; inhibition of growth at 5 µg/mL (COLO 205 [4]): 15.2%; inhibition of growth at 10 µg/mL (HepG2 [5]): 29.2%; inhibition of growth at 10 µg/mL (COLO 205 [6]): 24.9%; inhibition of growth at 10 µg/mL (MCF7 [7]): 45.2%; inhibition of growth at 5 µg/mL (HepG2 [8]): 14.8%; inhibition of growth at 30 µg/mL (HepG2 [9]): 65.1%; inhibition of growth at 20 µg/mL (HepG2 [10]): 55.3%; inhibition at 20 ug/ml [11]: 21.4%; growth inhibition (GI) (HepG2 [12]): Dose-dependent effect; inhibition of growth at 5 µg/mL (MCF7 [13]): 14.6%; growth inhibition (GI) (COLO 205 [14]): Dose-dependent effect; growth inhibition (GI) (MCF7 [15]): Dose-dependent effect; inhibition of growth at 20 µg/mL (MCF7 [16]): 86.5%; inhibition at 30 ug/ml [17]: 29.6%; inhibition of growth at 30 µg/mL (COLO 205 [18]): 65.2%; inhibition at 5 ug/ml [19]: 5.92%

— ChEMBL document CHEMBL2429759, “Anti-tumor activity evaluation of novel chrysin-organogermanium(IV) complex in MCF-7 cells” (Bioorg Med Chem Lett, 2013)
